Results reported in US4767762A, “Tricyclic quinoline and naphthyride antibacterials” (Abbott Laboratories, priority 1986, dated 1988).
Converted amounts (≈) assume the structure as drawn.

Key:
Assay in all cases: in vitro antibacterial activity (MIC), conventional agar dilution
Assay type in all cases: cell-based
Acinetobacter sp CMX 669 = conditions: CMX669, brain-heart infusion agar, inoculum 10^4 /plate
Experimental: (§1) The in vitro antibacterial activity is determined by conventional agar dilution procedures. A brain-heart infusion agar medium containing the drug is inoculated with a microbial culture cultivated on a brain-infusion broth (Difco 0037-01-6) at 36° C. for 18 hours and then observes for growth of the microorganism. The minimum concentration at which growth of the microorganism is inhibited is taken as MIC (ug/ml). The inoculum size is 10^4 /plate.

E. coli Juhl = conditions: Escherichia coli, brain-heart infusion agar, inoculum 10^4 /plate
Experimental: as §1

[1] = system: Ent. aerogenes ATCC 13048; conditions: Klebsiella aerogenes, ATCC13048, brain-heart infusion agar, inoculum 10^4 /plate
Experimental: as §1

Ent. faecium ATCC 8043 = conditions: Enterococcus faecium, ATCC8043, brain-heart infusion agar, inoculum 10^4 /plate
Experimental: as §1

K. pneumoniae ATCC 8045 = conditions: Klebsiella pneumoniae, ATCC8045, brain-heart infusion agar, inoculum 10^4 /plate
Experimental: as §1

P. aeruginosa A5007 = conditions: Pseudomonas aeruginosa, brain-heart infusion agar, inoculum 10^4 /plate
Experimental: as §1

P. stuartii CMX 640 = conditions: Providencia stuartii, CMX640, brain-heart infusion agar, inoculum 10^4 /plate
Experimental: as §1

Stap. aureus ATCC-6538p = conditions: Staphylococcus aureus, ATCC6538P, brain-heart infusion agar, inoculum 10^4 /plate
Experimental: as §1

Stap. epidermis 3519 = conditions: brain-heart infusion agar, inoculum 10^4 /plate
Experimental: as §1

Strep. Pyogenes EES61 = conditions: Streptococcus pyogenes, brain-heart infusion agar, inoculum 10^4 /plate
Experimental: as §1

| SMILES | MIC (Acinetobacter sp CMX 669) | MIC (E. coli Juhl) | MIC [1] | MIC (Ent. faecium ATCC 8043) | MIC (K. pneumoniae ATCC 8045) | MIC (P. aeruginosa A5007) | MIC (P. stuartii CMX 640) | MIC (Stap. aureus ATCC-6538p) | MIC (Stap. epidermis 3519) | MIC (Strep. Pyogenes EES61) |
| --- | --- | --- | --- | --- | --- | --- | --- | --- | --- | --- |
| CCn1c2s[nH]c(=O)c2c(=O)c2cc(F)c(N3CCNCC3)c(F)c21 [46(dd), 9-ethyl-6,8-difluoro-7-(piperazinyl)-2,3,4,9-tetrahydroisothiazolo[5,4-b]quinoline-3,4-dione] | 0.2 µg/mL (≈ 0.546 µM) | 0.05 µg/mL (≈ 0.136 µM) | 0.05 µg/mL (≈ 0.136 µM) | 0.2 µg/mL (≈ 0.546 µM) | 0.05 µg/mL (≈ 0.136 µM) | 0.78 µg/mL (≈ 2.13 µM) | 0.78 µg/mL (≈ 2.13 µM) | 0.05 µg/mL (≈ 0.136 µM) | 0.05 µg/mL (≈ 0.136 µM) | 0.39 µg/mL (≈ 1.06 µM) |
| CCn1c2s[nH]c(=O)c2c(=O)c2cc(F)c(N3CCC(N)C3)c(F)c21 (centres unmarked) [47(g), 9-ethyl-6,8-difluoro-7-(3-amino-1-pyrrolidinyl)-2,3,4,9-tetrahydroisothiazolo[5,4-b]quinoline-3,4-dione] | 0.1 µg/mL (≈ 0.273 µM) | 0.01 µg/mL (≈ 0.0273 µM) | 0.02 µg/mL (≈ 0.0546 µM) | 0.2 µg/mL (≈ 0.546 µM) | 0.01 µg/mL (≈ 0.0273 µM) | 0.78 µg/mL (≈ 2.13 µM) | 0.78 µg/mL (≈ 2.13 µM) | 0.05 µg/mL (≈ 0.136 µM) | 0.1 µg/mL (≈ 0.273 µM) | 0.78 µg/mL (≈ 2.13 µM) |
| O=c1[nH]sc2c1c(=O)c1cc(F)c(N3CCC(O)C3)cc1n2C1CC1 (centres unmarked) [46(ss), 9-cyclopropyl-6-fluoro-7-(3-hydroxy-1-pyrrolidinyl)-2,3,4,9-tetrahydroisothiazolo[5,4-b]quinoline-3,4-dione] | 0.02 µg/mL (≈ 0.0553 µM) | 0.02 µg/mL (≈ 0.0553 µM) | 0.05 µg/mL (≈ 0.138 µM) | 0.2 µg/mL (≈ 0.553 µM) | ≤ 0.005 µg/mL | 0.39 µg/mL (≈ 1.08 µM) | 0.78 µg/mL (≈ 2.16 µM) | 0.005 µg/mL (≈ 0.0138 µM) | 0.01 µg/mL (≈ 0.0277 µM) | 0.39 µg/mL (≈ 1.08 µM) |
| Cl.NC1CCN(c2cc3c(cc2F)c(=O)c2c(=O)[nH]sc2n3C2CC2)C1 (centres unmarked) [47(b), 9-cyclopropyl-6-fluoro-7-(3-amino-1-pyrrolidinyl)-2,3,4,9-tetrahydroisothiazolo[5,4-b]quinoline-3,4-dione hydrochloride] | 0.05 µg/mL | 0.05 µg/mL | 0.01 µg/mL | 0.1 µg/mL | 0.005 µg/mL | 0.2 µg/mL | 0.39 µg/mL | 0.02 µg/mL | 0.05 µg/mL | 0.05 µg/mL |
| CCn1c2cc(N3CCCC3)c(F)cc2c(=O)c2c(=O)[nH]sc21 [46(bbb), 9-ethyl-6-fluoro-7-(1-pyrrolidinyl)-2,3,4,9-tetrahydroisothiazolo[5,4-b]quinoline-3,4-dione] | 0.2 µg/mL (≈ 0.6 µM) | 0.05 µg/mL (≈ 0.15 µM) | 0.2 µg/mL (≈ 0.6 µM) | 0.2 µg/mL (≈ 0.6 µM) | 0.05 µg/mL (≈ 0.15 µM) | 0.2 µg/mL (≈ 0.6 µM) | > 100 µg/mL | 0.01 µg/mL (≈ 0.03 µM) | 0.02 µg/mL (≈ 0.06 µM) | 1.56 µg/mL (≈ 4.68 µM) |
| O=c1[nH]sc2c1c(=O)c1cc(F)c(N3CCNCC3)cc1n2C1CC1 [46(zz), 9-cyclopropyl-6-fluoro-7-(1-piperazinyl)-2,3,4,9-tetrahydroisothiazolo[5,4-b]quinoline-3,4-dione] | 0.05 µg/mL (≈ 0.139 µM) | 0.005 µg/mL (≈ 0.0139 µM) | 0.01 µg/mL (≈ 0.0277 µM) | 0.1 µg/mL (≈ 0.277 µM) | 0.005 µg/mL (≈ 0.0139 µM) | 0.05 µg/mL (≈ 0.139 µM) | 0.2 µg/mL (≈ 0.555 µM) | 0.02 µg/mL (≈ 0.0555 µM) | 0.05 µg/mL (≈ 0.139 µM) | 0.05 µg/mL (≈ 0.139 µM) |
| CCn1c2cc(N3CCNC(C)C3)c(F)cc2c(=O)c2c(=O)[nH]sc21 (centres unmarked) [46(ww), 9-ethyl-6-fluoro-7-(3-methyl-1-piperazinyl)-2,3,4,9-tetrahydroisothiazolo[5,4-b]quinoline-3,4-dione] | 0.2 µg/mL (≈ 0.552 µM) | 0.1 µg/mL (≈ 0.276 µM) | 0.1 µg/mL (≈ 0.276 µM) | 0.78 µg/mL (≈ 2.15 µM) | 0.2 µg/mL (≈ 0.552 µM) | 0.39 µg/mL (≈ 1.08 µM) | 1.56 µg/mL (≈ 4.3 µM) | 0.05 µg/mL (≈ 0.138 µM) | 0.1 µg/mL (≈ 0.276 µM) | 0.78 µg/mL (≈ 2.15 µM) |
| CCn1c2cc(N3CCNCC3)c(F)cc2c(=O)c2c(=O)[nH]sc21 [46(m), 9-ethyl-6-fluoro-7-(1-piperazinyl)-2,3,4,9-tetrhydroisothiazolo[5,4-b]quinoline-3,4-dione] | 0.39 µg/mL (≈ 1.12 µM) | 0.1 µg/mL (≈ 0.287 µM) | 0.2 µg/mL (≈ 0.574 µM) | 0.39 µg/mL (≈ 1.12 µM) | 0.05 µg/mL (≈ 0.144 µM) | 0.2 µg/mL (≈ 0.574 µM) | 0.39 µg/mL (≈ 1.12 µM) | 0.1 µg/mL (≈ 0.287 µM) | 0.2 µg/mL (≈ 0.574 µM) | 0.2 µg/mL (≈ 0.574 µM) |
| CC1CN(c2cc3c(cc2F)c(=O)c2c(=O)[nH]sc2n3-c2ccc(F)cc2)CCN1 (centres unmarked) [46(b), 9-p-fluorophenyl-6-fluoro-7-(3-methyl-1-piperazinyl)-2,3,4,9-tetrahydroisothiazolo[5,4-b]quinoline-3,4-dione] | 0.1 µg/mL (≈ 0.233 µM) | 0.05 µg/mL (≈ 0.117 µM) | 0.02 µg/mL (≈ 0.0467 µM) | 0.78 µg/mL (≈ 1.82 µM) | 0.01 µg/mL (≈ 0.0233 µM) | 1.56 µg/mL (≈ 3.64 µM) | 6.2 µg/mL (≈ 14.5 µM) | 0.01 µg/mL (≈ 0.0233 µM) | 0.2 µg/mL (≈ 0.467 µM) | 0.78 µg/mL (≈ 1.82 µM) |
| CCn1c2s[nH]c(=O)c2c(=O)c2cc(F)c(N3CCN(C)CC3)c(F)c21 [46(cc), 9-ethyl-6,8-difluoro-7-(4-methyl-1-piperazinyl)-2,3,4,9-tetrahydroisothiazolo[5,4-b]quinoline-3,4-dione] | 0.1 µg/mL (≈ 0.263 µM) | 0.1 µg/mL (≈ 0.263 µM) | 0.2 µg/mL (≈ 0.526 µM) | 0.39 µg/mL (≈ 1.03 µM) | 0.05 µg/mL (≈ 0.131 µM) | 3.1 µg/mL (≈ 8.15 µM) | 3.1 µg/mL (≈ 8.15 µM) | 0.1 µg/mL (≈ 0.263 µM) | 0.2 µg/mL (≈ 0.526 µM) | 0.78 µg/mL (≈ 2.05 µM) |
| CN1CCN(c2cc3c(cc2F)c(=O)c2c(=O)[nH]sc2n3-c2ccc(F)cc2)CC1 [46(a), 9-p-fluorophenyl-6-fluoro-7-(4-methyl-1-piperazinyl)-2,3,4,9-tetrahydroisothiazolo[5,4-b]quinoline-3,4-dione] | 0.2 µg/mL (≈ 0.467 µM) | 0.2 µg/mL (≈ 0.467 µM) | 0.39 µg/mL (≈ 0.91 µM) | 1.56 µg/mL (≈ 3.64 µM) | 0.1 µg/mL (≈ 0.233 µM) | 1.56 µg/mL (≈ 3.64 µM) | 12.5 µg/mL (≈ 29.2 µM) | 0.01 µg/mL (≈ 0.0233 µM) | 0.2 µg/mL (≈ 0.467 µM) | 1.56 µg/mL (≈ 3.64 µM) |
| O=c1[nH]sc2c1c(=O)c1cc(F)c(N3CCNCC3)cc1n2-c1ccc(F)cc1 [46(yy), 9-p-fluorophenyl-6-fluoro-7-(1-piperozinyl)-2,3,4,9-tetrahydroisothiazolo[5,4-b]quinoline-3,4-dione] | 0.2 µg/mL (≈ 0.483 µM) | 0.05 µg/mL (≈ 0.121 µM) | 0.1 µg/mL (≈ 0.241 µM) | 0.78 µg/mL (≈ 1.88 µM) | 0.02 µg/mL (≈ 0.0483 µM) | 0.78 µg/mL (≈ 1.88 µM) | 3.1 µg/mL (≈ 7.48 µM) | 0.1 µg/mL (≈ 0.241 µM) | 0.2 µg/mL (≈ 0.483 µM) | 0.78 µg/mL (≈ 1.88 µM) |
| CCn1c2cc(N3CCN(C)CC3)c(F)cc2c(=O)c2c(=O)[nH]sc21 [46(l), 9-ethyl-6-fluoro-7-(4-methyl-1-piperazinyl)-2,3,4,9-tetrahydroisothiazolo[5,4-b]quinoline-3,4-dione] | 0.05 µg/mL (≈ 0.138 µM) | 0.05 µg/mL (≈ 0.138 µM) | 0.1 µg/mL (≈ 0.276 µM) | 0.2 µg/mL (≈ 0.552 µM) | 0.05 µg/mL (≈ 0.138 µM) | 0.39 µg/mL (≈ 1.08 µM) | 1.56 µg/mL (≈ 4.3 µM) | 0.05 µg/mL (≈ 0.138 µM) | 0.1 µg/mL (≈ 0.276 µM) | 0.39 µg/mL (≈ 1.08 µM) |
| CC1CN(c2cc3c(cc2F)c(=O)c2c(=O)[nH]sc2n3-c2ccc(F)cc2F)CC1N (centres unmarked) [46(g), 9-o,p-difluorophenyl-6-fluoro-7-(3-amino-4-methyl-1-pyrrolidinyl)-2,3,4,9-tetrahydroisothiazolo[5,4-b]quinoline-3,4-dione] | 0.1 µg/mL (≈ 0.224 µM) | 0.05 µg/mL (≈ 0.112 µM) | 0.1 µg/mL (≈ 0.224 µM) | 0.2 µg/mL (≈ 0.448 µM) | 0.1 µg/mL (≈ 0.224 µM) | 0.78 µg/mL (≈ 1.75 µM) | 0.39 µg/mL (≈ 0.874 µM) | 0.05 µg/mL (≈ 0.112 µM) | 0.1 µg/mL (≈ 0.224 µM) | 0.78 µg/mL (≈ 1.75 µM) |
